Patent publication US6602664B2 (priority 1998, dated 2003)
Several values for one entry are separate records, joined by “and”; a condition that tells them apart may be missing. Equal values may be shown once. Read-outs that look alike come from different tables or passages of the source.

Tests used:
[1] = tested on: HIV-1 replication in human PBM cells; assay: microbe, parasite or virus in culture; format: cell-based
Method: Cells and viruses. […] Antimicrobial Agents Chemother 1992;36(11): 2423-2431.
Cell pellets were washed, centrifuged, lysed and the proviral DNA extracted as previously described. Cytotoxicity of the compounds was determined using the Promega Cell Titer 96 dye uptake assay (Madison, Wis.) in 1-2 day PHA-stimulated PBM cells after 5 days in culture. The median effective concentration (EC50) and inhibitory concentration (IC50) were derived from the computer-generated median effect plot of the dose-effect data, as described previously.

[2] = tested on: drug-resistant HIV-1 in PBMC; assay: microbe, parasite or virus in culture; format: cell-based; settings: for EC50: Human immunodeficiency virus 1, PBMC, PBMC
[3] = tested on: drug-resistant HIV-1 in MT-2; assay: microbe, parasite or virus in culture; format: cell-based; settings: MT-2
[4] = tested on: drug-resistant HIV-1 in MT-4; assay: microbe, parasite or virus in culture; format: cell-based
[5] = tested on: drug-resistant HIV-1 in HeLa HT4-6C; assay: microbe, parasite or virus in culture; format: cell-based; settings: Human immunodeficiency virus 1, HeLa
[6] = tested on: recombinant HIV-1 virus isolates; format: cell-based
Text: The aim of the study was to determine the potency of the inhibitory effect of a new generation of NRTIs on Multi Drug Resistant isolates and to compare it with their effect on wild-type HIV-1 isolates. All recombinant viruses were taken from the VIRCO repository of phenotypically and genotypically characterized virus isolates. Hirsch et al. Antiretroviral Drug Resistance Testing in Adults with HIV Infection. JAMA; 1998: 79(24) 1984-1991. See also Pauwels et al. Comprehensive HIV drug Resistance monitoring using rapid, high-throughput phenotypic and genotypic assays with correlative data analysis. Antiviral Therapy, 1998: 3: 35 Abstract 51.
Phenotypic drug susceptibility determination of recombinant virus isolates is described in Hertogs et al. A Rapid Method for Simultaneous Detection of Phentypic Resistance to Inhibitors of Protease and Reverse Transcriptase in Recombinant HIV-1 Isolates from Patients Treated with Antiretroviral Drugs. Antimicrob. Agents Chemother. 1998; 42(2): 269-276. The basic principle of the Antivirogram® technology is the construction of chimeric HIV-1 strains composed of the protease (PR) and reverse transcriptase (RT) gene sequences which are isolated and amplified from patient viral RNA. Amplicons are subsequently transfected into CD4+T cells together with a standard laboratory isogenic (HXB2) HIV-1 DNA construct from which the PR/RT gene sequences were deleted. After homologous recombination, new viruses whose diversity reflects the original population amplified from the plasma are produced at high level from these cells.
The virus infectivity (CCID50) is determined by an end-point dilution method. The titer is calculated from the degree of infection, measured by the intensity of reporter-gene signal as generated by serial dilutions of the virus shock. The chimeric (clinical isolates and wild-type reference) viruses are then analyzed for their phenotypic sensitivity (i.e. susceptibility) to the different PR and RT-inhibitors in an automated reporter gene-based assay using serial dilutions of the compound. The standardisation of the Antivirogram®n assay allows for simultaneous testing of all clinically approved drugs in one 384-well microtiter plate. The experimental drugs are included in separate plates. Each plate contains multiple replicates of mock-infected wells, virus-infection control wells and blank (medium-only) well. All plates are tested in duplicate. 50% Inhibitory concentrations are calculated based on reporter signals obtained through optical reading of 384-well plates containing serial dilutions of compounds, a normalised quantity of virus and by taking into account all relevant control wells. Approval (or not) is done according to critical ranges and settings as described in the corresponding VIRCO Standard Operating Procedure.
A more detailed description of the protocol is as follows. Samples were stored frozen. […] To confirm the genotypic pattern, genotyping (ABI-sequencing) was performed after recombination and culture of the laboratory strains by analysis of cell viability, calculation of results (dose-response curves, IC50 values), and reporting of data.

HIV = settings: U.S. Pat. No. 4,916,122; cited from earlier work
[7] = Human immunodeficiency virus 1, PBMC, 144 h
[8] = clinical isolate (pre) prior to long-term ZDV monotherapy, row HIV-1 (A012D), read-out: Untreated EC50
[9] = clinical isolate HIV-1 (A012D:M41L?/D67N/K70R/T215F/K219Q), read-out: Selected Varient EC50

[N-]=[N+]=N[C@H]1C[C@H](n2ccc(=O)[nH]c2=O)O[C@@H]1CO [CS-87, 3′-Azido-2′,3′-dideoxyuridine]
m ± SE (slope of median effect plot) [1]: 1.62 ± 0.13 and 1.50 ± 0.33 and 1.01 ± 0.01 | inhibition at 10 µM [1, 7]: 34.5% | inhibition at 100 µM [1, 7]: 32% | inhibition at 1000 µM [1, 7]: 87.3% | fold change in EC50 [2]: < 3 fold | EC50 [2, 8]: 400 nM | EC50 [2, 9]: 16500 nM | EC50 ([2]; molecular clone 1 (T215Y/M41L), read-out: Selected Varient EC50): 2100 nM | EC50 ([2]; molecular clone (M184V/T215Y), read-out: Selected Varient EC50): 1100 nM | EC50 ([2]; molecular clone HIV-1 (D67N/K70R/T215Y/K219Q), read-out: Selected Varient EC50): 300 nM | EC50 ([2]; molecular clone HIV-1 (K65R), read-out: Selected Varient EC50): 1100 nM | EC50 ([2]; molecular clone HIV-1 (L74V), read-out: Selected Varient EC50): 600 nM | EC50 ([2]; molecular clone HIV-1 (M184V), read-out: Selected Varient EC50): 600 nM | EC50 ([2]; molecular clone HIV-1 (T215Y), read-out: Selected Varient EC50): 300 nM | EC50 ([2]; parent strain HIV-1 (xxLAI), row 1 (T215Y/M41L), read-out: Untreated EC50): 1100 nM | EC50 ([2]; parent strain HIV-1 (xxLAI), row (M184V/T215Y), read-out: Untreated EC50): 1100 nM | EC50 ([2]; parent strain HIV-1 (xxLAI), row HIV-1 (D67N/K70R/T215Y/K219Q), read-out: Untreated EC50): 1100 nM | EC50 ([2]; parent strain HIV-1 (xxLAI), row HIV-1 (K65R), read-out: Untreated EC50): 1100 nM | EC50 ([2]; parent strain HIV-1 (xxLAI), row HIV-1 (L74V), read-out: Untreated EC50): 1100 nM | EC50 ([2]; parent strain HIV-1 (xxLAI), row HIV-1 (M184V), read-out: Untreated EC50): 1100 nM | EC50 ([2]; parent strain HIV-1 (xxLAI), row HIV-1 (T215Y), read-out: Untreated EC50): 1100 nM | EC50 ([3]; Human immunodeficiency virus 1, MT2, molecular clone HIV-1 (D67N/K70R/M184V/T215Y/K219Q), read-out: Selected Varient EC50): 53400 nM | EC50 ([3]; Human immunodeficiency virus 1, MT2, molecular clone HIV-1 (D67N/K70R/T215Y/K219Q), read-out: Selected Varient EC50): > 90000 nM | EC50 ([3]; Human immunodeficiency virus 1, MT2, molecular clone HIV-1 (M41L/D67N/M184V/H208Y/L210W/R211K/L214F/T215Y), read-out: Selected Varient EC50): 50200 nM | EC50 ([3]; Human immunodeficiency virus 1, MT2, molecular clone HlV-1 (M184V), read-out: Selected Varient EC50): 16800 nM | EC50 ([3]; Human immunodeficiency virus 1, MT2, parent strain HIV-1 (xxLAI), row HIV-1 (D67N/K70R/M184V/T215Y/K219Q), read-out: Untreated EC50): 20000 nM | EC50 ([3]; Human immunodeficiency virus 1, MT2, parent strain HIV-1 (xxLAI), row HIV-1 (D67N/K70R/T215Y/K219Q), read-out: Untreated EC50): 20000 nM | EC50 ([3]; Human immunodeficiency virus 1, MT2, parent strain HIV-1 (xxLAI), row HIV-1 (M41L/D67N/M184V/H208Y/L210W/R211K/L214F/T215Y), read-out: Untreated EC50): 20000 nM | EC50 ([3]; Human immunodeficiency virus 1, MT2, parent strain HIV-1 (xxLAI), row HlV-1 (M184V), read-out: Untreated EC50): 20000 nM | EC50 ([4]; Human immunodeficiency virus 1, MT4, clinical isolate (pre) prior to long-term ZDV monotherapy, row HIV-1 (A-161), read-out: Untreated EC50): 600 nM | EC50 ([4]; Human immunodeficiency virus 1, MT4, clinical isolate (pre) prior to long-term ZDV monotherapy, row HIV-1 (C-246), read-out: Untreated EC50): 600 nM | EC50 ([4]; Human immunodeficiency virus 1, MT4, clinical isolate (pre) prior to long-term ZDV monotherapy, row HIV-1 (G-68), read-out: Untreated EC50): 600 nM | EC50 ([4]; Human immunodeficiency virus 1, MT4, clinical isolate (pre) prior to long-term ZDV monotherapy, row HIV-1 (R-102), read-out: Untreated EC50): 600 nM | EC50 ([4]; Human immunodeficiency virus 1, MT4, clinical isolate (pre) prior to long-term ZDV monotherapy, row HIV-1 (X-78), read-out: Untreated EC50): 600 nM | EC50 ([4]; Human immunodeficiency virus 1, MT4, clinical isolate HIV-1 (A-161), long-term ZDV monotherapy, read-out: Selected Varient EC50): 8600 nM | EC50 ([4]; Human immunodeficiency virus 1, MT4, clinical isolate HIV-1 (C-246), long-term ZDV monotherapy, read-out: Selected Varient EC50): 10300 nM | EC50 ([4]; Human immunodeficiency virus 1, MT4, clinical isolate HIV-1 (G-68), long-term ZDV monotherapy, read-out: Selected Varient EC50): 500 nM | EC50 ([4]; Human immunodeficiency virus 1, MT4, clinical isolate HIV-1 (R-102), long-term ZDV monotherapy, read-out: Selected Varient EC50): 300 nM | EC50 ([4]; Human immunodeficiency virus 1, MT4, clinical isolate HIV-1 (X-78), long-term ZDV monotherapy, read-out: Selected Varient EC50): 500 nM | EC50 [5, 8]: 400 nM | EC50 ([5]; clinical isolate (pre) prior to long-term ZDV monotherapy, row HIV-1 (A018C), read-out: Untreated EC50): 1000 nM | EC50 ([5]; clinical isolate (pre) prior to long-term ZDV monotherapy, row HIV-1 (A036DD), read-out: Untreated EC50): 600 nM | EC50 ([5]; clinical isolate (pre) prior to long-term ZDV monotherapy, row HIV-1 (P022C), read-out: Untreated EC50): 400 nM | EC50 ([5]; clinical isolate (pre) prior to long-term ZDV monotherapy, row HIV-1 (P026B), read-out: Untreated EC50): 400 nM | EC50 [5, 9]: 89000 nM | EC50 ([5]; clinical isolate HIV-1 (A018C:D67N/K70R/T215Y/K219Q), read-out: Selected Varient EC50): 50000 nM | EC50 ([5]; clinical isolate HIV-1 (A036DD:M41L/D67N/K70R/T215Y), read-out: Selected Varient EC50): 56000 nM | EC50 ([5]; clinical isolate HIV-1 (P022C:M41L?/D67N/K70R/T215F/K219Q), read-out: Selected Varient EC50): 40000 nM | EC50 ([5]; clinical isolate HIV-1 (P026B:M41L?/D67N/K70R/T215Y), read-out: Selected Varient EC50): 100000 nM | activity against multiple-drug resistant forms of HIV [6]: active | susceptibility of multiple dideoxynucleoside resistant viruses [6]: resistant | anti-HIV activity (HIV): significant anti-HIV activity
